Measured values: patent US7344829B2, “Methods for detecting the efficacy of anticancer treatments” (Board of Regents, the University of Texas System, priority 2000, dated 2008)
Like-named read-outs stand apart in the source and are kept apart here. Marks after values point to notes of the source that are not given here.

Tests used:
Cdc2/cyclin B = Cdc2/cyclin B protein kinase inhibition assay; type: biochemical
Description: GST-fused kinase domains of Kdr, Flt-1, Flk, Tek, c-Met, and c-Kit were expressed in baculovirus and purified over glutathione-Sepharose. Kinase inhibition was measured by detecting the decrease in phosphorylation of poly(Glu,[…]:1) essentially as previously described for EGF-R. […] Reactions were terminated by adding 10 μl of 250 mM EDTA, and the reaction mixture was transferred onto an Immobilon-PVDG membrane (Millipore, Bedford, Mass.). Following a washing (0.5% H3PO4), a soaking in EtOH, and drying, filters were counted in a liquid scintillation counter. […] Inhibition of Cdc2/cyclin B protein kinase (Arion et al. 1988; […] et al. 1991) and […] et al. 1992b) was assayed as previously described.

[1] = tested on: L3.6pl human pancreatic cancer cells
Description: Animals and Orthotopic Implantation of Tumor Cells. Male athymic nude mice (NCr-nu) were purchased from the Animal Production Area of the National Cancer Institute-Frederick Cancer Research and Development Center (Frederick, Md.). The mice were housed and maintained in laminar flow cabinets under specific pathogen-free conditions in facilities approved by the American Association for Accreditation of Laboratory Animal Care and in accordance with current regulations and standards of the U. S. Department of Agriculture, U.S. Department of Health and Human Services, and the National Institutes of Health. The mice were used in accordance with institutional guidelines when they were 8 to 12 wk old.
Orthotopic Implantation of Tumor Cells. To produce tumors, L3.6pl cells were harvested from subconfluent cultures by a brief exposure to 0.25% trypsin and 0.02% EDTA. Trypsinization was stopped with medium containing 10% FBS, and the cells were washed once in serum-free medium and resuspended in HBSS. Only suspensions consisting of single cells with greater than 90% viability were used for the injections. Cells were injected into the pancreas as described previously. The mice were killed when moribund (5–6 wk). The size and weight of the primary pancreatic tumors, the incidence of regional (celiac and paraaortal) lymph node metastasis, and the number of liver metastases were recorded. Histopathology confirmed the nature of the disease.
Therapy of Established Human Pancreatic Carcinoma Tumors Growing in the Pancreas of Athymic Nude Mice. Seven days after implantation of tumor cells into the pancreas, 5 mice were killed and the presence of tumor lesions was determined. At this time, the median tumor volume was 18 mm^3. Histological examination confirmed the lesions to be actively growing pancreatic cancer.
Necropsy Procedures and Histological Studies. Mice were euthanized and the body weight was determined. Primary tumors in the pancreas were excised and weighed. […] Visible liver metastases were counted with the aid of a dissecting microscope and processed for H&E staining. All macroscopically enlarged regional (celiac and paraaortal) lymph nodes were harvested, and the presence of metastatic disease was confirmed by histology.

c-Met = target: T1, c-Met (Homo sapiens, UniProt P08581); assay: GST-fused kinase domain assay, c-Met; type: biochemical
T1 construct: GST-fused kinase domains of Kdr, Flt-1, Flk, Tek, c-Met, and c-Kit were expressed in baculovirus; GST; made in house
T1 sequence (P08581 1078-1345 limits assumed): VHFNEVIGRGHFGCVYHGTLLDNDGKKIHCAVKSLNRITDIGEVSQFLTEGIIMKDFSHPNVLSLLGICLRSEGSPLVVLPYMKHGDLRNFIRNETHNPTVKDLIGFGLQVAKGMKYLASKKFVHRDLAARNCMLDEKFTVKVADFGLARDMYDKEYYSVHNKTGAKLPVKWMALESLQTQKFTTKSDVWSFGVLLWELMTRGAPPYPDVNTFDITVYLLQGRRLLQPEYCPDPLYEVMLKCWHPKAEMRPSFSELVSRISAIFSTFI
Description: (§1) GST-fused kinase domains of Kdr, Flt-1, Flk, Tek, c-Met, and c-Kit were expressed in baculovirus and purified over glutathione-Sepharose. Kinase inhibition was measured by detecting the decrease in phosphorylation of poly(Glu,Tyr 4:1) essentially as previously described for EGF-R. Each kinase was incubated under optimized buffer conditions in 20 mM Tris-HCl, pH 7.5, 1–3 mM MnCl2, 3–10 mM MgCl2, 10 μM Na3VO4, 1 mM DTT, 0.2 μCi/[γ-^33P]ATP, 1–8 μM ATP, 3–8 μg/ml poly(Glu,Tyr 4:1), 1% DMSO in a total volume of 30 μl in the presence or absence of PKI166 for 10 min at ambient temperature. Reactions were terminated by adding 10 μl of 250 mM EDTA, and the reaction mixture was transferred onto an Immobilon-PVDG membrane (Millipore, Bedford, Mass.). Following a washing (0.5% H3PO4), a soaking in EtOH, and drying, filters were counted in a liquid scintillation counter. IC50 values for PKI166 were calculated by linear regression analysis of the percentage inhibition. Inhibition of Cdc2/cyclin B protein kinase (Arion et al. 1988; Partanen et al. 1991) and PKC (McGlynn et al. 1992b) was assayed as previously described.

Tek = target: T2, Tek (Homo sapiens, UniProt Q02763); assay: GST-fused kinase domain assay, Tek; type: biochemical
T2 construct: GST-fused kinase domains of Kdr, Flt-1, Flk, Tek, c-Met, and c-Kit were expressed in baculovirus; GST; made in house
T2 sequence (Q02763 824-1096 limits assumed, species assumed): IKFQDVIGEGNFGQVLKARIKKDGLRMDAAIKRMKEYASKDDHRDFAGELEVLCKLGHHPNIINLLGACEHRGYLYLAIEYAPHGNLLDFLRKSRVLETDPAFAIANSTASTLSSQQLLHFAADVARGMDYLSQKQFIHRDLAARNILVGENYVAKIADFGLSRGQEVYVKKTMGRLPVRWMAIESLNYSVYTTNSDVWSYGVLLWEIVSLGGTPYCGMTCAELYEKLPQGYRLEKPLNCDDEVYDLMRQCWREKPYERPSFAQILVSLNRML
Description: as §1

[2] = tested on: L3.6pl human pancreatic cancer cells; assay: Immunohistochemical analysis of human pancreatic carcinoma in the pancreas of treated nude mice; type: in vivo; conditions: for PCNA+ tumor cells / TUNEL+ tumor cells: mean ± SD, 10 random 0.159-mm^2 fields at ×100; for CD (CD31, tumor MVD per field): staining with antibodies against CD31
Excerpt: Immunohistochemical (IHC) Determination of VEGF, IL-8, PCNA, CD31/PECAM-1, and EGF-R. Paraffin-embedded tissues were used for identification of VEGF, IL-8, EGF-R, and proliferating cell nuclear antigen (PCNA). Sections (4–6 μm thick) were mounted on positively-charged Superfrost slides (Fisher Scientific, Co., Houston, Tex.) and dried overnight. Sections were deparaffinized in xylene followed by treatment with a graded series of alcohol (100%, 95%, 80% ethanol/ddH2O [v/v]) and rehydrated in PBS, pH 7.5. Sections analyzed for PCNA were microwaved 5 min for “antigen retrieval” (Shi et al. 1991). All other paraffin-embedded tissues were treated with pepsin (Biomeda) for 15 min at 37° C. and washed with PBS. Frozen tissues used for identification of CD31/PECAM-1, and activated EGF-R were sectioned (8–10 μm), mounted on positively charged Plus slides (Fisher Scientific), and air-dried for 30 min. Frozen sections were fixed in cold acetone (5 min), acetone/chloroform (v/v) (5 min), and acetone (5 min) and washed with PBS. Immunohistochemical procedures were performed as described previously (Rak et al. 1996). Positive reaction was visualized by incubating the slides with stable 3,3′-diaminobenzidine (DAB) for 10–20 min or 3-amino-9-ethylcarbazole (AEC) after CD31 staining. The sections were rinsed with distilled water, counterstained with Gill's hematoxylin for 1 min, and mounted with Universal Mount (Research Genetics). […] Sections analyzed for activated EGF-R were pretreated with goat anti-mouse IgG F(ab)2 fragment (1:10 dilution in PBS) for 4–6 h before incubation with the primary antibody. The positive reaction following staining for activated EGF-R was enhanced with osmium tetraoxide (4% aqueous solution) at a 1:1000 dilution in ddH2O after incubation with DAB.
Immunofluorescence Double Staining for CD31/PECAM-1 (Endothelial Cells) and TUNEL (Apoptotic Cells). Frozen tissues were sectioned (8–10 μm), mounted on positively charged slides, air-dried for 30 min, and fixed in cold acetone for 5 min, acetone+chloroform (1:1) for 5 min, and acetone for 5 min. Samples were washed 3 times with PBS, incubated with protein-blocking solution containing 5% normal horse serum and 1% normal goat serum in PBS for 20 min at room temperature, and incubated with the appropriate dilution (1:400) of rat monoclonal anti-mouse CD31 antibody (human cross-reactive) over 18 h at 4° C. After the samples were rinsed 4 times for 3 min each with PBS, the slides were incubated with the appropriate dilution (1:200) of secondary goat anti-rat conjugated to Texas Red for 1 h at room temperature in the dark. Samples were washed twice with PBS containing 0.1% Brij and washed with PBS for 5 min.
TUNEL was performed using a commercially available apoptosis detection kit with the following modifications: samples were fixed with 4% paraformaldehyde (methanol-free) for 10 min at room temperature, washed twice with PBS for 5 min, and then incubated with 0.2% Triton X-100 for 15 min at room temperature. After two washes of 5 min each with PBS, the samples were incubated with equilibration buffer (from kit) for 10 min at room temperature. The equilibration buffer was drained, and reaction buffer containing equilibration buffer, nucleotide mix, and TdT enzyme was added to the tissue sections and incubated in a humid atmosphere at 37° C. for 1 h in the dark. The reaction was terminated by immersing the samples in 2×SSC for 15 min. Samples were washed 3 times for 5 min to remove unincorporated fluorescein-dUTP. For quantification of […], the samples were incubated with 300 μg/ml of Hoechst stain for 10 min at room temperature. Fluorescent bleaching was minimized by treating slides with an enhancing reagent (Prolong solution). […]

[3] = mice, cited from earlier work
[4] = mean ± SD absorbance, ratio of tumor cell to normal pancreatic gland expression ×100, day 35

## C[C@@H](Nc1ncnc2[nH]c(-c3ccc(O)cc3)cc12)c1ccccc1 [PKI166, 4-(R)-phenethylamino-6-(hydroxyl) phenyl-7H-pyrrolo[2.3-d]-pyrimidine]
Cdc2/cyclin B
  IC50: 78 µM
[1]; day 35
  Histologically positive regional lymph node metastases, share of animals: 90%
[1]; human pancreatic carcinoma in pancreas of nude mice
  Reduction of growth of primary pancreatic neoplasms: 45%
[1]; mouse, in vivo, po, 100 mg/kg
  Tolerability as determined by maintenance of body weight: well tolerated
c-Met
  IC50: > 1 µM
Tek
  IC50: > 1 µM
[2]; CD31/TUNEL double labeling, tumors harvested 23 days after initiation of treatment
  percentage of apoptotic endothelial cells over total endothelial cells: 20±15
[2]; calculated
  ratio of PCNA-positive over TUNEL-positive cells: 0.64
[2]; immunohistochemistry of tumors from treated nude mice
  Staining of pancreatic tumors for activated (phosphorylated) EGF-R: not the activated (phosphorylated) EGF-R
[2]; [4]
  IL-8: 185 ± 11^e
  VEGF: 173 ± 20^e
[2]; day 35
  PCNA+ tumor cells: 185±33 positive cells/field
  TUNEL+ tumor cells: 287±84 positive cells/field
  CD (CD31, tumor MVD per field): 24±18
[2]; day 35, listed as PK1166
  PCNA+ tumor cells: 185 ± 33 positive cells/field
  TUNEL+ tumor cells: 287 ± 84^e positive cells/field
  CD (CD31, tumor MVD per field): 24
[3]; plasma, oral
  Sustained levels of unchanged compound in plasma, time after oral administration: up to 8 h
[3]; single oral administration of 100 mg/kg, plasma, read-out: C max in plasma
  Cmax: 32.8 µM
[3]; single oral administration of 100 mg/kg, subcutaneous A431 tumors, read-out: C max in subcutaneous A431 tumors
  Cmax: 53 µM
[3]; single oral administration of 100 mg/kg
  t max: 1 h
